Test results: the supplement of paper PMC11208160

Experiment: recombinant barcode read abundance after kanamycin selection (control-corrected) (log10(CPM+1)); higher = more efficient recombination; sequences stand for … in AGTGCAGAGAAAATCGGCCAGTTTTCTCTGCCTGCAGTCCGCATGCCGT…ATTTATGCAGCGGACTGCCTTTCTCCCAAAGTGATAAACCGGACAGTATCATGGACCGGTTTTCCCGGTAATCCGTATTTGCAAGGTTGGTTTCACT; site = the 11-nt target
Summary of the method: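 IS621 bridge RNA target-binding loops were paired with targets in a pooled library tested in E. coli. After co-electroporation with a donor plasmid, cells were plated in two replicates on chloramphenicol/ampicillin LB agar (control) and on chloramphenicol/ampicillin/kanamycin carrying 0.1 mM IPTG. Barcodes at recombinant junctions were counted as counts per million, averaged and control-corrected to give recombination efficiency. Values are log10(CPM+1).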

Sequence | recombinant barcode read abundance (log10)
TGATACCACTGGGTTCTAACCTGTTGCGTGT [TGATACCCTAC_LTGcore_AC_RTGcore_AC] (site TGATACCCTAC) (LTG core: AC, RTG core: AC) | 0.136
TGATACCCATGGGTTCTAACCTGTTGCGTAG [TGATACCCTAC_LTGcore_CA_RTGcore_CT] (site TGATACCCTAC) (LTG core: CA, RTG core: CT) | 0.328
TGATACCCCTGGGTTCTAACCTGTTGCGTAG [TGATACCCTAC_LTGcore_CC_RTGcore_CT] (site TGATACCCTAC) (LTG core: CC, RTG core: CT) | 0.566
TGATACCCTTGGGTTCTAACCTGTTGCGTAA [TGATACCCTAC_LTGcore_CT_RTGcore_TT] (site TGATACCCTAC) (LTG core: CT, RTG core: TT) | 0.882
TGATACCCTTGGGTTCTAACCTGTTGCGTAT [TGATACCCTAC_LTGcore_CT_RTGcore_AT] (site TGATACCCTAC) (LTG core: CT, RTG core: AT) | 0.624
TGATACCTATGGGTTCTAACCTGTTGCGTAG [TGATACCCTAC_LTGcore_TA_RTGcore_CT] (site TGATACCCTAC) (LTG core: TA, RTG core: CT) | 0.0864
TGATACCTATGGGTTCTAACCTGTTGCGTTA [TGATACCCTAC_LTGcore_TA_RTGcore_TA] (site TGATACCCTAC) (LTG core: TA, RTG core: TA) | 0.0463
TGATACCTCTGGGTTCTAACCTGTTGCGTGA [TGATACCCTAC_LTGcore_TC_RTGcore_TC] (site TGATACCCTAC) (LTG core: TC, RTG core: TC) | 0.0566
TGATACCTTTGGGTTCTAACCTGTTGCGTAA [TGATACCCTAC_LTGcore_TT_RTGcore_TT] (site TGATACCCTAC) (LTG core: TT, RTG core: TT) | 0.0482
TGTATTCAATGGGTTCTAACCTGTTGCCTAG [TGTATTCCTAG_LTGcore_AA_RTGcore_CT] (site TGTATTCCTAG) (LTG core: AA, RTG core: CT) | 0.0633
TGTATTCAATGGGTTCTAACCTGTTGCCTTT [TGTATTCCTAG_LTGcore_AA_RTGcore_AA] (site TGTATTCCTAG) (LTG core: AA, RTG core: AA) | 0.0627
TGTATTCCCTGGGTTCTAACCTGTTGCCTAG [TGTATTCCTAG_LTGcore_CC_RTGcore_CT] (site TGTATTCCTAG) (LTG core: CC, RTG core: CT) | 0.168
TGTATTCCTTGGGTTCTAACCTGTTGCCTCG [TGTATTCCTAG_LTGcore_CT_RTGcore_CG] (site TGTATTCCTAG) (LTG core: CT, RTG core: CG) | 0.161
TGTATTCCTTGGGTTCTAACCTGTTGCCTGA [TGTATTCCTAG_LTGcore_CT_RTGcore_TC] (site TGTATTCCTAG) (LTG core: CT, RTG core: TC) | 0.0266
TGTATTCCTTGGGTTCTAACCTGTTGCCTTC [TGTATTCCTAG_LTGcore_CT_RTGcore_GA] (site TGTATTCCTAG) (LTG core: CT, RTG core: GA) | 0.0942
TGTATTCGCTGGGTTCTAACCTGTTGCCTGC [TGTATTCCTAG_LTGcore_GC_RTGcore_GC] (site TGTATTCCTAG) (LTG core: GC, RTG core: GC) | 0.312
TGTATTCTGTGGGTTCTAACCTGTTGCCTCA [TGTATTCCTAG_LTGcore_TG_RTGcore_TG] (site TGTATTCCTAG) (LTG core: TG, RTG core: TG) | 0.205
TTATAAAAGTGGGTTCTAACCTGTTGCCTAG [TTATAAACTAG_LTGcore_AG_RTGcore_CT] (site TTATAAACTAG) (LTG core: AG, RTG core: CT) | 0.0357
TTATAAACATGGGTTCTAACCTGTTGCCTAG [TTATAAACTAG_LTGcore_CA_RTGcore_CT] (site TTATAAACTAG) (LTG core: CA, RTG core: CT) | 0.314
TTATAAACGTGGGTTCTAACCTGTTGCCTAG [TTATAAACTAG_LTGcore_CG_RTGcore_CT] (site TTATAAACTAG) (LTG core: CG, RTG core: CT) | 0.111
TTATAAACTTGGGTTCTAACCTGTTGCCTAA [TTATAAACTAG_LTGcore_CT_RTGcore_TT] (site TTATAAACTAG) (LTG core: CT, RTG core: TT) | 0.0141
TTATAAAGATGGGTTCTAACCTGTTGCCTAG [TTATAAACTAG_LTGcore_GA_RTGcore_CT] (site TTATAAACTAG) (LTG core: GA, RTG core: CT) | 0.0604
TTATAAAGTTGGGTTCTAACCTGTTGCCTAC [TTATAAACTAG_LTGcore_GT_RTGcore_GT] (site TTATAAACTAG) (LTG core: GT, RTG core: GT) | 0.0636
TTATAAATGTGGGTTCTAACCTGTTGCCTCA [TTATAAACTAG_LTGcore_TG_RTGcore_TG] (site TTATAAACTAG) (LTG core: TG, RTG core: TG) | 0.0981
